Five molecules from article PMC6321475, “Synthesis and Evaluation of the 4-Substituted 2-Hydroxy-5-Iodochalcones and Their 7-Substituted 6-Iodoflavonol Derivatives for Inhibitory Effect on Cholinesterases and β-Secretase” (International Journal of Molecular Sciences, 2018) can be followed below.

Holding throughout (type): biochemical
In assay [1] the target is T1, BACE-1 (Homo sapiens, UniProt P56817).
T1 construct: purchased Pan Vera; host or cells: baculovirus-expressed
The experiment in a line: In vitro BACE-1 inhibitory FRET assay. To be noted: 60 min at 25 °C, pH 4.5.

The target of assay [2] is acetylcholinesterase (AChE) (Homo sapiens, UniProt P22303). In words: biochemical. Particulars: for IC50: mean ± SD, three independent experiments.
The target of assay [3] is butyrylcholinesterase (BChE) (Homo sapiens, UniProt P06276). The experiment in a line: biochemical. Particulars: for IC50: mean ± SD, three independent experiments.
The target of a further assay is BChE (Homo sapiens, UniProt P06276). The experiment in a line: Kinetic study against BChE (Lineweaver-Burk and Dixon plots). To be noted: for Ki: Dixon plot, substrate butyrylthiocholine iodide; for mode of inhibition of BChE: kinetic analysis. As to the method:
(§1) The experiment was performed using different inhibitor (2h, 3b or 3p) concentrations (0, 2.5, 3.5 and 5 µM) and substrate (acetylthiocholine iodide (ACh) or butyrylthiocholine iodide (BCh) concentrations (0.1, 0.5, 2.5 and 5 µM). The reaction was carried out in triplicate and the absorbences were measured at 412 nm after every 1 s. A linear graph of the absorbences against time were plotted to obtain the velocity. Finally, the lineweaver burk plot (reciprocal of the velocity versus reciprocal of the subtrate concentrations) was plotted. as well as the Dixon plot (reciprocal of the velocity versus inhibitor concentration). The inhibition constant Ki, was determined by calculating the straight line equations and identifying the point at which the lines would intersect.

For assay [4], the target named is T1, BACE-1. In words: Kinetic study against BACE-1 (Lineweaver-Burk and Dixon plots). To be noted: Dixon plot intercept. As to the method: The kinetics assays were conducted according to the manufacturer’s instructions similarly to the inhibitory assay except that change in fluorescence over time was monitored at 590 nm without the addition of the stop solution. Each substrate (0.15, 0.30, 0.45 µM) and compound (0, 4, 8 and 16 µM) concentration pair were prepared in triplicate and analyzed. The Lineweaver Burk and Dixon plots were plotted as described in Section 3.7.1.

Another assay addresses AChE (Homo sapiens, UniProt P22303). In words: Kinetic study against AChE (Lineweaver-Burk and Dixon plots). As to the method: as §1

butyrylcholinesterase (BChE), sequence (P06276 29-602): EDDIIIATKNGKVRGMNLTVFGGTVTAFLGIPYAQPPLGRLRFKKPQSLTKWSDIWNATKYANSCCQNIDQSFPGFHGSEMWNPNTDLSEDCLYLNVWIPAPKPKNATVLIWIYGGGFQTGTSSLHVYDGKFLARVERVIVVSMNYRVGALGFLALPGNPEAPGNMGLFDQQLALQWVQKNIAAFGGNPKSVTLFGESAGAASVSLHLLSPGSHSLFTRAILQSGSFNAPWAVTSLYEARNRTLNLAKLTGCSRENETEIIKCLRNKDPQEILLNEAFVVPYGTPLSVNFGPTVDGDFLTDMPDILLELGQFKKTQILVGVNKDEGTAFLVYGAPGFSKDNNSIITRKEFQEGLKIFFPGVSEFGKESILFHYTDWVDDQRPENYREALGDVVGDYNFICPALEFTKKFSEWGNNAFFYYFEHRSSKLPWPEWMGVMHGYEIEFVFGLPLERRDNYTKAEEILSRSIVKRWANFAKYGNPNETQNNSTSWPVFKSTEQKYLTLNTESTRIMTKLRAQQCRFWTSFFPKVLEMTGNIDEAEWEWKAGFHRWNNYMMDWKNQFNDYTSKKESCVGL
BChE, sequence (P06276 29-602): as above
acetylcholinesterase (AChE), sequence (P22303 32-614): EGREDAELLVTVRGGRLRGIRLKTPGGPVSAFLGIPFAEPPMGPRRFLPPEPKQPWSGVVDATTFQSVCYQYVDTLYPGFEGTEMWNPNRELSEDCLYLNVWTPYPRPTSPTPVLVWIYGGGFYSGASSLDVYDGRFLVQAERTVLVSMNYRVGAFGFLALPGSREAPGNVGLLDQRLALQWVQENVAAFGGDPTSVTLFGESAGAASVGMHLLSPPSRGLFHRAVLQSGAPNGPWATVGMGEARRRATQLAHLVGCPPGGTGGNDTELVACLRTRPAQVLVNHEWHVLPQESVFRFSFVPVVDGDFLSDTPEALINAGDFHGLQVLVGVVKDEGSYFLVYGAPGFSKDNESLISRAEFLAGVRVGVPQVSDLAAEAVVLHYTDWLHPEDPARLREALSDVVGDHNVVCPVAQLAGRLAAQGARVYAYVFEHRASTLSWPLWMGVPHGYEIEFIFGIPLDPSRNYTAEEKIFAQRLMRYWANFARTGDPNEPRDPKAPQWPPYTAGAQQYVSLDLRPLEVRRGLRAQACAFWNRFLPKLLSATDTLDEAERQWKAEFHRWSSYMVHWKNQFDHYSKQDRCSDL
T1 sequence (P56817 46-501): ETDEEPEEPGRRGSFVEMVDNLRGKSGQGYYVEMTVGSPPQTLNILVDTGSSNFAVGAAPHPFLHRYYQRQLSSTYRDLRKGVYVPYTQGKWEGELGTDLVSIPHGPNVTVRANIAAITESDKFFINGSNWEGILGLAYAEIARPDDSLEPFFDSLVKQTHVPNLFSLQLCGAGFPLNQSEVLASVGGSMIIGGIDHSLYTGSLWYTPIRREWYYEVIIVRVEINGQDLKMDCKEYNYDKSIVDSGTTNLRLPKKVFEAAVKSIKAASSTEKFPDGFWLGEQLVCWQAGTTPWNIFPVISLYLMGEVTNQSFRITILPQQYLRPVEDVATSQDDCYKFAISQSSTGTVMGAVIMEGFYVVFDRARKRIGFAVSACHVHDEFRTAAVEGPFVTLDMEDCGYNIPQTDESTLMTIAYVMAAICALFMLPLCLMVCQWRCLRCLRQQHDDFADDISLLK
AChE, sequence (P22303 32-614): as the sequence (P22303 32-614) above

For `COc1ccc(/C=C/C(=O)c2cc(I)c(Cl)cc2O)cc1` [Compound 2h, (E)-1-(4-Chloro-2-hydroxy-5-iodophenyl)-3-(4-methoxyphenyl)propenone], the IC50 on BACE-1 [1] was 13.82 ± 0.03 µM. Moreover, in assay [2], the “SI BChE/AChE” value is listed as 0.36 and the midpoint of inhibition, the IC50, lay at 11.72 ± 0.07 µM. Further, in assay [3], the “SI AChE/BChE” value is reported as 2.81 and inhibition was half-maximal at 4.17 ± 0.15 µM (IC50). Further, at BChE, the affinity, expressed as Ki, was 1.36 ± 0.17 µM and the “mode of inhibition of BChE” value is on record as “non-competitive inhibitor”.

Regarding `O=C(/C=C/c1ccc(F)cc1)c1cc(I)c(Br)cc1O` [Compound 2j, (E)-1-(4-Bromo-2-hydroxy-5-iodophenyl)-3-(4-fluorophenyl)propenone], the Ki at BACE-1 [4] was 3.04 ± 2.31 µM. Moreover, the midpoint of inhibition against BACE-1 [1], the IC50, lay at 4.7 µM. For the same molecule, in assay [2], the “SI BChE/AChE” value amounted to 0.52 and the IC50 came out at 10.98 ± 0.03 µM. For the same molecule, in assay [3], the “SI AChE/BChE” value was found to be 1.92 and the IC50 amounted to 5.73 ± 0.05 µM.

Molecule `O=c1c(O)c(-c2ccc(F)cc2)oc2cc(F)c(I)cc12` [Compound 3b, 7-Flu.oro-2-(4-fluorophenyl)-3-hydroxy-6-iodo-4H-chromen-4-one] returned an IC50 against BACE-1 [1] of 32.18 ± 0.15 µM. Moreover, on AChE (Dixon plot, substrate acetylthiocholine iodide), the Ki came to 4.34 ± 1.1 µM. Moreover, on AChE (kinetic analysis), the “mode of inhibition of AChE” value is recorded as “mixed type of inhibition”. Also, in assay [2], the “SI BChE/AChE” value is given as 9.22 and the IC50 stood at 3.23 ± 0.02 µM. Further, in assay [3], the “SI AChE/BChE” value is recorded as 0.11 and the IC50 turned out to be 29.78 ± 0.04 µM.

As to `COc1ccc(-c2oc3cc(Br)c(I)cc3c(=O)c2O)cc1` [Compound 3l, 7-Bro.mo-3-hydroxy-6-iodo-2-(4-methoxyphenyl)-4H-chromen-4-one], the Ki at BACE-1 [4] was 1.21 ± 0.66 µM. This molecule registered an IC50 against BACE-1 [1] of 15.74 ± 0.12 µM.

Consider `COc1ccc(-c2oc3cc(OC)c(I)cc3c(=O)c2O)cc1` [Compound 3p, 3-Hyd.roxy-6-iodo-7-methoxy-2-(4-methoxyphenyl)-4H-chromen-4-one], for which, on BACE-1 [1], the IC50 was found to be 22.44 ± 0.07 µM. Also, in assay [2], the “SI BChE/AChE” value was 0.45 and the IC50 was 7.19 ± 0.02 µM. In addition, in assay [3], the “SI AChE/BChE” value worked out at 2.18 and the IC50 came to 3.29 ± 0.03 µM. Besides, at BChE, the affinity corresponds to a Ki of 0.46 ± 0.16 µM and the “mode of inhibition of BChE” value was “mixed kinetic type of inhibition”.
